Positions count from the first letter of the chain named. pIC50: −log10 of the molar value. Several values for one entry are separate records, joined by “and”; a condition that tells them apart may be missing. Equal values may be shown once. Read-outs that look alike come from different tables or passages of the source.

We go through 17 compounds from patent publication US10968462B2, “Plants having increased tolerance to herbicides” (BASF AGRO B.V., priority 2013, dated 2021).

Format in all cases: biochemical, Amaranthus tuberculatum
For test [1], the target named is T1, wild type and amino acid substituted PPO enzyme (PPO2) of SEQ ID NO: 2 (AMARE) (Amaranthus tuberculatus, UniProt Q0NZW9, L397E/F420M, form not given).
T1 sequence (Q0NZW9 1-534 L397E/F420M): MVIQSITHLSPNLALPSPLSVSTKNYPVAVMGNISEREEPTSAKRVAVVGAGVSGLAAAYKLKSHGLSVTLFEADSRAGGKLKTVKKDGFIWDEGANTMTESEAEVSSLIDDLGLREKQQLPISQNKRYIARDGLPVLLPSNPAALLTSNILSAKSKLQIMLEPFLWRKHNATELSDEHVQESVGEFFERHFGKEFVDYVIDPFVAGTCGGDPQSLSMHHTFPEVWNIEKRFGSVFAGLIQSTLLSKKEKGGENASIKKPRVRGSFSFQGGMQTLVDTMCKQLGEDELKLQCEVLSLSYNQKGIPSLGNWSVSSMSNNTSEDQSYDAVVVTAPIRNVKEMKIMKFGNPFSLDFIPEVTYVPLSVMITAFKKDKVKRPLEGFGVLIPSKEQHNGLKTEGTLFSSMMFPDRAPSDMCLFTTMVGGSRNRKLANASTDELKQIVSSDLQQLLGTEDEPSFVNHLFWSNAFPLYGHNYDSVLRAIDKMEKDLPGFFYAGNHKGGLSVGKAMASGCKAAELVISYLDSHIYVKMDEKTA

The target in test [2] is T2, wild type and amino acid substituted PPO enzyme (PPO2) of SEQ ID NO: 2 (AMARE) (Amaranthus tuberculatus, UniProt Q0NZW9, L397A/F420M, form not given).
T2 sequence (Q0NZW9 1-534 L397A/F420M): T1 sequence (Q0NZW9 1-534 L397E/F420M) with E397A

The test system of test [3] is wild type and amino acid substituted PPO enzyme (PPO2) of SEQ ID NO: 2 (AMARE).
In test [4] the target is T3, wild type and amino acid substituted PPO enzyme (PPO2) of SEQ ID NO: 2 (AMARE) (Amaranthus tuberculatus, UniProt Q0NZW9, R128I/F420L, form not given).
T3 sequence (Q0NZW9 1-534 R128I/F420L): T1 sequence (Q0NZW9 1-534 L397E/F420M) with R128I, E397L, M420L

`CCOCCOC(=O)C(OC)Oc1ccccc1Oc1cc(-n2c(=O)cc(C(F)(F)F)n(C)c2=O)c(F)cc1Cl` (stereo not shown): the negative-log IC50 (pIC50) (commonly the negative decadic logarithm of the IC50, by convention in mol/L) in test [1] is 5.35; in test [2] it was 6.16.
Taken in the same sequence, the figures for `COC(Oc1ccccc1Oc1cc(-n2c(=O)cc(C(F)(F)F)n(C)c2=O)c(F)cc1Cl)C(=O)OCC(F)F` (stereo not shown) were 6.06 and 6.48.
Taken in the same sequence, the figures for `COC(Oc1ccccc1Oc1cc(-n2c(=O)cc(C(F)(F)F)n(C)c2=O)c(F)cc1Cl)C(=O)OCc1ccncc1` (stereo not shown) were 5.20 and 6.06.
In the case of `COC(Oc1ccccc1Oc1cc(-n2c(=O)cc(C(F)(F)F)n(C)c2=O)c(F)cc1Cl)C(=O)OCC1(C)CC1` (stereo not shown), the negative-log IC50 (pIC50) was 5.73 in test [1] and 6.39 in test [2].
Take `COC(Oc1ccccc1Oc1cc(-n2c(=O)cc(C(F)(F)F)n(C)c2=O)c(F)cc1Cl)C(=O)OC1CCCCC1` (stereo not shown): in test [3], the “inhibition (%) at 1 × 10−5M” value came out at 26%. The pIC50 was 5.07 in test [1] and 5.78 in test [2].
Take `COC(=O)C(OC)Oc1ccccc1Oc1cc(-n2c(=O)cc(C(F)(F)F)n(C)c2=O)c(F)cc1Cl` (stereo not shown): the negative-log IC50 (pIC50) in test [3] is 7.94; in test [1], 6.02; in test [2] it was 6.56.
Consider `CCOC(=O)COc1ncccc1Oc1cc(-n2c(=O)cc(C(F)(F)F)n(C)c2=O)c(F)cc1Cl` [A.13, ethyl [3-[2-chloro-4-fluoro-5-(1-methyl-6-trifluoromethyl-2,4-dioxo-1,2,3,4-tetrahydropyrimidin-3-yl)phenoxy]-2-pyridyloxy]acetate, reference compound], for which the negative logarithm of the IC50 (pIC50) in test [4] is 6.70.
With `O=C(O)c1cc(Oc2ccc(C(F)(F)F)cc2Cl)ccc1[N+](=O)[O-]` [ACIFLUORFEN], the “inhibition (%) at 1 × 10−5M” value in test [3] is 27% and 33%. For the same compound, in test [4], the negative logarithm of the IC50 (pIC50) was at most 5.00 and the “inhibition (%) at 1 × 10−5M” value is listed as 16%.
Consider `C#CCN1C(=O)C(F)(F)Oc2cc(F)c(-n3c(=O)n(C)c(=S)n(C)c3=O)cc21` [BAS 850H], for which the negative-log IC50 (pIC50) in test [4] is 6.39 and 6.61.
The same measure, in the same setting: in the case of `C=CCOC(=O)C(C)(C)OC(=O)c1cc(-n2c(=O)cc(C(F)(F)F)n(C)c2=O)ccc1Cl` [BUTAFENACIL] it was 7.10; in that of `CCOC(=O)C(Cl)Cc1cc(-n2nc(C)n(C(F)F)c2=O)c(F)cc1Cl` (stereo not shown) [CARFENTRAZONE-ETHYL], 6.79.
Turning to `CCOC(=O)/C(Cl)=C/c1cc(N2C(=O)C3=C(CCCC3)C2=O)ccc1Cl` [CINIDON-ETHYL], the “inhibition (%) at 1 × 10−5M” value in test [3] worked out at 48%. Further, the pIC50 in test [4] (read-out: IC50) was 5.02.
As to `C#CCN1C(=O)COc2cc(F)c(N3C(=O)C4=C(CCCC4)C3=O)cc21` [FLUMIOXAZIN], the “inhibition (%) at 1 × 10−5M” value is 41% and 48% in test [3]; 9% in test [4]. The compound further gave a negative-log IC50 (pIC50) in test [4] of at most 5.00.
In the case of `CS(=O)(=O)NC(=O)c1cc(Oc2ccc(C(F)(F)F)cc2Cl)ccc1[N+](=O)[O-]` [FOMESAFEN], in test [4], the pIC50 is at most 5.00 and the “inhibition (%) at 1 × 10−5M” value turned out to be 38%.
Compound `CCOC(=O)C(C)OC(=O)c1cc(Oc2ccc(C(F)(F)F)cc2Cl)ccc1[N+](=O)[O-]` (stereo not shown) [LACTOFEN] showed a pIC50 in test [4] of 6.89.
Still for that read-out and setting: in the case of `CCOc1cc(Oc2ccc(C(F)(F)F)cc2Cl)ccc1[N+](=O)[O-]` [OXIFLUORFEN] it was 5.38.
Consider OXADIARGYL, for which the pIC50 in test [4] (read-out: IC50) was 6.06.
